Measurements taken from publication PMC12154443, “Design, Synthesis, Anti-Tumor Activity and Molecular Docking Studies of Novel Triphenylphosphine-Containing Formononetin Derivatives” (International Journal of Molecular Sciences, 2025).
Read-outs that look alike come from different tables or passages of the source.

Tests used:
[1] = test system: human gastric cancer cells (HGC-27); experiment: MTT cell viability assay, HGC-27; format: cell-based; conditions: 48 h, HGC-27 cells, read-out: half inhibitory concentration (IC50), HGC-27
Description: (§1) The human embryonic kidney cells (HEK-293), human non-small-cell lung cancer (A549), human breast cancer cells (MCF-7), and human prostate cancer (PC-3M) cells used in this study were obtained from the Beijing BNCC Biotechnology Research Institute (Beijing, China), and human gastric cancer cells (HGC-27) were obtained from Dalian Meilun Biotechnology Co., Ltd. (Dalian, China).
(§2) The cell lines used in this study (A549, MCF-7, PC-3M, HGC-27, HEK-293) were removed from the CO2 incubator and seeded into 96-well plates at a density of 5 × 10^4/mL. Following a 24-h incubation period under standard CO2 conditions, we added […] of sample solutions at various concentrations ([…], 12.5, 25, 50, 100 μmol/L) to each well. Each concentration was tested in six replicates. The control group received 0.1% DMSO in serum-free medium (SFM). After 48 h of the drug effect, 10 µL of MTT solution was added to each well under light-avoidance conditions, and incubation was continued under light-avoidance conditions for 4 h; the supernatant was discarded, and 150 μL of DMSO was added to dissolve the resulting formazan crystals. After 10 min of shaking to ensure the complete dissolution and uniform color development of purple crystals, the absorbance (OD) was measured at 490 nm using a microplate reader.
(§3) The inhibition rate was calculated as: Inhibition rate (%) = [(OD value of control group-OD value of administered group)/(OD value of control group-OD value of zeroing group)] × 100%, where OD value of zeroing group represents the zeroing group.
(§4) The IC50 values of the drugs were calculated by fitting using GraphPad Prism v.6.01 (GraphPad Software, San Diego, CA, USA), and it was used as a criterion for selecting the appropriate drug concentration for subsequent experiments.

[2] = test system: human embryonic kidney cells (HEK-293); experiment: MTT cell viability assay, normal HEK-293 cells; format: cell-based; conditions: HEK293, 48 h, read-out: half inhibitory concentration (IC50), HEK-293
Description: as §1, §2, §3, §4

[3] = test system: human non-small-cell lung cancer (A549); experiment: MTT cell viability assay, A549; format: cell-based; conditions: A549 cells; for IC50: Homo sapiens, MTT, 48 h, read-out: half inhibitory concentration (IC50), A549; for increase in cytostatic effect relative to formononetin: from IC50 values
Description: The human embryonic kidney cells (HEK-293), human non-small-cell lung cancer (A549), human breast cancer cells (MCF-7), and human prostate cancer (PC-3M) cells used in this study were obtained from the Beijing BNCC Biotechnology Research Institute (Beijing, China), and human gastric cancer cells (HGC-27) were obtained from Dalian Meilun Biotechnology Co., Ltd. (Dalian, China). […] Each concentration was tested in six replicates. The control group received 0.1% DMSO in serum-free medium (SFM). […] The inhibition rate was calculated as: Inhibition rate (%) = [(OD value of control group-OD value of administered group)/(OD value of control group-OD value of zeroing group)] × 100%, where OD value of zeroing group represents the zeroing group.

[4] = test system: human prostate cancer (PC-3M) cells; experiment: MTT cell viability assay, PC-3M; format: cell-based; conditions: 48 h, read-out: half inhibitory concentration (IC50), PC-3M
Description: as §1, §2, §3, §4

[5] = test system: human breast cancer cells (MCF-7); experiment: MTT cell viability assay, MCF-7; format: cell-based
Description: as §1, §2, §3, §4

[6] = Solubility observed during the experimental process; format: physicochemical; conditions: room temperature, formononetin in water, methanol, ethanol, acetone, tetrahydrofuran, ethyl acetate, dichloromethane, chloroform, derivatives in acetate
Description: Therefore, using procedures reported in the previous studies, we employed a molar ratio of 1:3 between the intermediate and triphenylphosphine. […] For the synthesis of fatty acid esters, dichloromethane was employed as the reaction solvent, and a 1.5-fold molar excess of the corresponding acid was added. The reaction was conducted over a 1–4 h period, which enabled the complete conversion of formononetin and maximum yield. […] The introduction of triphenylphosphine […].

[7] = MCF7, 48 h, MCF-7 cells, read-out: half inhibitory concentration (IC50), MCF-7
[8] = MCF7, MCF-7 cells, read-out: IC50 against MCF-7 cells

SMILES | IC50 [1] [µM] | IC50 [3] [µM] | IC50 [4] [µM] | IC50 [5, 7] [µM] | IC50 [5, 8] [µM] | solubility (observation) [6] | IC50 [2] [µM] | increase in cytostatic effect relative to formononetin [3] [fold]
COc1ccc(-c2coc3cc(OC(=O)CCCCCCCCCCCBr)ccc3c2=O)cc1 [1g, 7-O-(12-bromododecanoyl)-formononetin] | 95.5 ± 6.23 | 53.6 ± 5.15 | > 100 | – | – | – | 59.9 ± 7.79 | –
COc1ccc(-c2coc3cc(OC(=O)CCCCC[P+](c4ccccc4)(c4ccccc4)c4ccccc4)ccc3c2=O)cc1 [2a, 7-O-(6-bromohexanoyl)-formononetin-triphenylphosphine coupling] | 13.4 ± 2.77 | 28.8 ± 2.45 | 55.2 ± 4.4 | 72.8 ± 6.25 | – | – | 44.8 ± 2.39 | –
COc1ccc(-c2coc3cc(OC(=O)CCCCCC[P+](c4ccccc4)(c4ccccc4)c4ccccc4)ccc3c2=O)cc1 [2b, 7-O-(7-bromoheptanoyl)-formononetin-triphenylphosphine coupling] | 32.1 ± 5.96 | 42.2 ± 3.69 | 69.2 ± 3.98 | 46.5 ± 4.94 | – | – | 46.2 ± 3.99 | –
COc1ccc(-c2coc3cc(OC(=O)CCCCCCC[P+](c4ccccc4)(c4ccccc4)c4ccccc4)ccc3c2=O)cc1 [2c, 7-O-(8-bromooctanoyl)-formononetin-triphenylphosphine coupling] | 18.6 ± 1.6 | 12.2 ± 1.52 | 21.7 ± 1.25 | 42.6 ± 9.44 | – | – | 77 ± 8.26 | ~7
COc1ccc(-c2coc3cc(OC(=O)CCCCCCCC[P+](c4ccccc4)(c4ccccc4)c4ccccc4)ccc3c2=O)cc1 [2d, 7-O-(9-bromononanoyl)-formononetin-triphenylphosphine coupling] | 29.1 ± 2.58 | 31.2 ± 4.4 | 67 ± 6.97 | 56.8 ± 4.04 | – | – | 47 ± 8.41 | –
COc1ccc(-c2coc3cc(OC(=O)CCCCCCCCC[P+](c4ccccc4)(c4ccccc4)c4ccccc4)ccc3c2=O)cc1 [2e, 7-O-(10-bromodecanoyl)-formononetin-triphenylphosphine coupling] | 39.2 ± 2.68 | 39 ± 1.65 | 97.9 ± 6.33 | 85.5 ± 4.99 | – | – | 64 ± 3.47 | –
COc1ccc(-c2coc3cc(OC(=O)CCCCCCCCCC[P+](c4ccccc4)(c4ccccc4)c4ccccc4)ccc3c2=O)cc1 [2f, 7-O-(11-bromoundecanoyl)-formononetin-triphenylphosphine coupling] | 30.4 ± 2.12 | 20.6 ± 1.21 | 27.9 ± 2.69 | 52.3 ± 6.85 | – | – | 51.7 ± 5.48 | ~7
COc1ccc(-c2coc3cc(OC(=O)CCCCCCCCCCC[P+](c4ccccc4)(c4ccccc4)c4ccccc4)ccc3c2=O)cc1 [2g, 7-O-(12-bromododecanoyl)-formononetin-triphenylphosphine coupling] | 29.4 ± 2.52 | 23.6 ± 2.25 | 41.2 ± 4.4 | 46.6 ± 4.95 | – | – | 59.6 ± 5.65 | ~7
CCCCCCCCCC(=O)Oc1ccc2c(=O)c(-c3ccc(OC)cc3)coc2c1 [3e, 7-O-n-decanoyl-formononetin] | 48.6 ± 5.3 | 74 ± 11.9 | – | – | – | – | – | –
CCCCCCCCCCC(=O)Oc1ccc2c(=O)c(-c3ccc(OC)cc3)coc2c1 [3f, 7-O-undecanoyl-formononetin] | 45.4 ± 5.24 | 70.1 ± 9.67 | 46.7 ± 9.24 | 85 ± 5.74 | – | – | 75 ± 5.49 | –
CCCCCCCCCCCC(=O)Oc1ccc2c(=O)c(-c3ccc(OC)cc3)coc2c1 [3g, 7-O-dodecanoyl-formononetin] | – | 66.9 ± 9.7 | 50.4 ± 5.78 | 67.8 ± 8.92 | – | – | 50.4 ± 6.13 | –
O=c1[nH]cc(F)c(=O)[nH]1 [5-FU, 5-fluorouracil, reference compound] | 36.2 ± 3.02 | 22.9 ± 3.54 | 48.1 ± 3.76 | – | > 100 | – | > 100 | –

The next lines start with results.

IC50 [1] [µM] | IC50 [3] [µM] | IC50 [4] [µM] | IC50 [5, 7] [µM] | IC50 [5, 8] [µM] | solubility (observation) [6] | SMILES | IC50 [2] [µM] | increase in cytostatic effect relative to formononetin [3] [fold]
83.3 ± 8.32 | – | – | – | – | – | COc1ccc(-c2coc3cc(OC(=O)CCCCCBr)ccc3c2=O)cc1 [1a, 7-O-(6-bromohexanoyl)-formononetin] | 83.4 ± 8.61 | –
79.1 ± 5.65 | – | – | – | – | – | COc1ccc(-c2coc3cc(OC(=O)CCCCCCBr)ccc3c2=O)cc1 [1b, 7-O-(7-bromoheptanoyl)-formononetin] | 70.7 ± 5.61 | –
31.4 ± 4.93 | > 100 | – | – | – | – | COc1ccc(-c2coc3cc(OC(=O)CCCCCCCBr)ccc3c2=O)cc1 [1c, 7-O-(8-bromooctanoyl)-formononetin] | 68 ± 5.33 | –
79.2 ± 9.27 | 86.2 ± 6.1 | – | – | – | – | COc1ccc(-c2coc3cc(OC(=O)CCCCCCCCBr)ccc3c2=O)cc1 [1d, 7-O-(9-bromononanoi)-formononetin] | 74.4 ± 4.28 | –
66.1 ± 7.33 | 65.4 ± 5.01 | 84 ± 11 | – | – | – | COc1ccc(-c2coc3cc(OC(=O)CCCCCCCCCBr)ccc3c2=O)cc1 [1e, 7-O-(10-bromodecanoyl)-formononetin] | 95.1 ± 7.97 | –
55.6 ± 2.43 | 74.6 ± 11.4 | – | – | – | – | COc1ccc(-c2coc3cc(OC(=O)CCCCCCCCCCBr)ccc3c2=O)cc1 [1f, 7-O-(11-bromoundecanoyl)-formononetin] | 95.7 ± 8.09 | –
49.5 ± 3.35 | – | 62 ± 8.71 | – | – | – | CCCCCC(=O)Oc1ccc2c(=O)c(-c3ccc(OC)cc3)coc2c1 [3a, 7-O-hexanoyl-formononetin] | – | –
65.4 ± 3.88 | 96.4 ± 7.37 | – | – | – | – | CCCCCCC(=O)Oc1ccc2c(=O)c(-c3ccc(OC)cc3)coc2c1 [3b] | – | –
60 ± 7.82 | 83 ± 5.89 | – | – | – | – | CCCCCCCC(=O)Oc1ccc2c(=O)c(-c3ccc(OC)cc3)coc2c1 [3c, 7-O-octanoyl-formononetin] | – | –
80.2 ± 4.8 | 78.1 ± 6.21 | 58.3 ± 5.36 | – | – | – | CCCCCCCCC(=O)Oc1ccc2c(=O)c(-c3ccc(OC)cc3)coc2c1 [3d, 7-O-nonanoyl-formononetin] | 78.3 ± 9.74 | –
5.97 ± 0.43 | 15.4 ± 1.06 | 0.168 ± 0.06 | 13.2 ± 0.43 | – | – | COc1cccc2c1C(=O)c1c(O)c3c(c(O)c1C2=O)C[C@@](O)(C(=O)CO)C[C@@H]3O[C@H]1C[C@H](N)[C@H](O)[C@H](C)O1 [DOX, doxorubicin, reference compound] | – | –
29.6 ± 1.17 | 83 ± 6.25 | 76.4 ± 6.47 | – | > 100 | almost no solubility | COc1ccc(-c2coc3cc(O)ccc3c2=O)cc1 [FMN, formononetin] | 39.6 ± 3.26 | –
